A short description of data set [1]: PAMPA permeability. The format is in vitro ADME. For orientation: The PAMPA barrier holds no transporters, so it reflects passive diffusion.
Data set [2] is described as follows: Solubility at pH 7.4. The format is physicochemical.
The subject of data set [3] is Asexual parasites of P. falciparum strain 3D7. Briefly: In vitro drug activity on asexual parasites (SYBR Green assay). The format is cell-based, Plasmodium falciparum. On the procedure:
Cell culture. Asexual parasites of P. falciparum strain 3D7 were cultured as described previously [Trager W, et al., Journal of Parasitology 2005, 91: 484-486], Stage III-V gametocytes were selected and enriched with 3-day treatment with 50 mM N-acetylglucosamine (NAG) and the following Percoll density gradient centrifugation after gametocyte production [Tanaka T Q, et al., Molecular and Biochemical Parasitology, 2011, 111: 160-163], Gametocytes of HB3 and Dd2 strains were produced and then set up for assay in a similar process. HepG2 cells (ATCC, cat. no. 77400) were cultured in 175-cm^2 tissue culture flasks with 30 ml growth medium at 37° C. in a 5% CO2 humidified atmosphere. Growth medium was made with Dulbecco's Modified Eagle Medium with 10% fetal bovine serum (FBS). Growth medium was replaced every other day and cells were passed at 75% confluence.
Asexual parasites of P. falciparum strain 3D7 were cultured as described previously (Trager, W. et al., J. Parasitol. 2005, 91(3): 484-486). Drug activity on asexual stage parasites was tested using a SYBR Green assay as described previously (Eastman, R. T. et al., Antimicrob. Agents Chemother. 2013, 57(1): 425-435; Smilkstein, M. et al., Antimicrob. Agents Chemother. 2004, 48(5): 1803-1806). Briefly, parasites were diluted to 0.5% parasitemia in complete culture medium with 2% hematocrit and drugs diluted in DMSO (≤0.5%) and were loaded into a 96-well plate (200 μl/well). No drug and RBC alone wells were included as positive and background controls, respectively, and each testing condition was examined in duplicated. After 72 h incubation under the standard culture condition and a freeze-thaw lysis step at −80° C. and room temperature, 100 μl/well of lysis buffer containing SYBR Green I was added to the parasite culture and incubated for 30 min at room temperature. The fluorescence of each well was measured at 520 nm following excitation at 490 nm using a FLUOstar Optima™ microplate reader (BMG Labtech).

Data set [4] is described as follows: Microsomal stability (rat). The note with it: rat microsomes. The format is in vitro ADME.
Data set [5] concerns the target mTOR (Homo sapiens, UniProt P42345). The data set can be described thus: mTOR activity (no method described). The data set is classed as biochemical.
The mark [6] stands for this setting: P. falciparum 3D7 asexual parasites, 72 h, SYBR Green.

Read-outs that look alike come from different tables or passages of the source. Bounds are passed on as bounds.

For the compound `CS(=O)(=O)c1ccc(-n2c(=O)ccc3cnc4ccc(-c5ccc(Cl)cc5)cc4c32)cc1CN1CCNCC1` [Compound 35], the “PAMPA Permeability (×10^6 cm/s)” value in data set [1] is on record as 35 ×10^6 cm/s. The “Sol @ pH 7.4 (ug/mL)” value in data set [2] is 4.3 ug/mL. The compound also had an EC50 in data set [3] (setting [6]) of 75.8 nM. In addition, the “Microsomal Stability (rat) T1/2” value in data set [4] is reported as above 30 min.
As to `CS(=O)(=O)c1ccc(-n2c(=O)ccc3cnc4ccc(-c5ccc(C6(N)CC6)cc5)cc4c32)cc1` [Compound 36], the “PAMPA Permeability (×10^6 cm/s)” value in data set [1] is recorded as 6.5 ×10^6 cm/s. The “Sol @ pH 7.4 (ug/mL)” value in data set [2] was 5.9 ug/mL. In data set [3] (setting [6]), this compound had an EC50 of 188 nM. The “Microsomal Stability (rat) T1/2” value in data set [4] is above 30 min.
In the same order, the values of `CS(=O)(=O)c1ccc(-n2c(=O)ccc3cnc4ccc(-c5ccc(N)nc5)cc4c32)cc1Cl` [Compound 61] are <1 ×10^6 cm/s, 2.3 ug/mL, 8.49 nM and above 30 min.
In the same order, the values of `CN(C)CCc1ccc(-c2ccc3ncc4ccc(=O)n(-c5ccc(S(C)(=O)=O)cc5)c4c3c2)cc1` [Compound 68] are 148.7 ×10^6 cm/s, 15.7 ug/mL, 131 nM and above 30 min.
Turning to `Cc1cc(S(C)(=O)=O)ccc1-n1c(=O)ccc2cnc3ccc(-c4ccc(CN(C)C)cc4)cc3c21` [Compound 69], the “PAMPA Permeability (×10^6 cm/s)” value in data set [1] was 828.3 ×10^6 cm/s. Besides, in data set [2], the “Sol @ pH 7.4 (ug/mL)” value was above 73 ug/mL. The compound also showed an EC50 in data set [3] (setting [6]) of 1940 nM. The “Microsomal Stability (rat) T1/2” value in data set [4] is given as above 30 min.
`Cc1cc(S(C)(=O)=O)ccc1-n1c(=O)ccc2cnc3ccc(-c4ccc(N)nc4)cc3c21` [Compound 70]: the “PAMPA Permeability (×10^6 cm/s)” value in data set [1] is reported as 148.4 ×10^6 cm/s. Also, the “Sol @ pH 7.4 (ug/mL)” value in data set [2] is listed as 1.2 ug/mL. The compound also had an EC50 in data set [3] (setting [6]) of 20.1 nM. For the same compound, the “Microsomal Stability (rat) T1/2” value in data set [4] is 31.3 min.
For the compound `CN(C)CCOc1ccc(-c2ccc3ncc4ccc(=O)n(-c5ccc(S(C)(=O)=O)cc5)c4c3c2)cc1` [Compound 71], in data set [1], the “PAMPA Permeability (×10^6 cm/s)” value is 133.5 ×10^6 cm/s. Also, in data set [2], the “Sol @ pH 7.4 (ug/mL)” value came out at 2 ug/mL. In data set [3] (setting [6]), this compound showed an EC50 of 56.6 nM. In addition, the “Microsomal Stability (rat) T1/2” value in data set [4] is recorded as above 30 min.
On to `O=C(NCC(F)(F)F)c1ccc(-n2c(=O)ccc3cnc4ccc(-c5ccc(Cl)cc5)cc4c32)cc1` [Compound 89], for which the PAMPA Permeability in data set [1] was below 1 ×10⁻⁶ cm/s. For the same compound, the mTOR in data set [5] worked out at 2.689 µM. Moreover, the “Sol @ pH 7.4” value in data set [2] is below 1 ug/mL. In data set [3], the EC50 amounted to 52.1 nM. For the same compound, in data set [4], the “Microsomal Stability (rat) T1/2” value is above 30 min.
In the same order, the values of `CN(C)CCNC(=O)c1ccc(-n2c(=O)ccc3cnc4ccc(-c5ccc(Cl)cc5)cc4c32)cc1` [Compound 90] are 802 ×10⁻⁶ cm/s, 19.84 µM, 13.6 ug/mL, 74.1 nM and above 30 min.
Compound `O=C(NC1CC1)c1ccc(-n2c(=O)ccc3cnc4ccc(-c5ccc(F)cc5)cc4c32)cc1` [Compound 91] registered a PAMPA Permeability in data set [1] of 54.2 ×10⁻⁶ cm/s. Further, in data set [5], the mTOR is 4.415 µM. Moreover, the “Sol @ pH 7.4” value in data set [2] is below 1 ug/mL. The midpoint of the response in data set [3], the EC50, lay at 33 nM. Moreover, in data set [4], the “Microsomal Stability (rat) T1/2” value is given as above 30 min.
In the same order, the values of `O=C(NC1CC1)c1ccc(-n2c(=O)ccc3cnc4ccc(-c5ccc(Cl)cc5)nc4c32)cc1` [Compound 93] are 76.3 ×10⁻⁶ cm/s, 0.4507 µM, below 1 ug/mL, 27.9 nM and above 30 min.
The like results for `O=C(NC1CN(CCO)C1)c1ccc(-n2c(=O)ccc3cnc4ccc(-c5ccc(Cl)cc5)cc4c32)cc1` [Compound 94] were, in that order, 1.9 ×10⁻⁶ cm/s, 4.188 µM, 13.6 ug/mL, 24.9 nM and above 30 min.
In the same order, the values of `CN(C)CCN1CCN(C(=O)c2ccc(-n3c(=O)ccc4cnc5ccc(-c6ccc(Cl)cc6)cc5c43)cc2)CC1` [Compound 95] are 674 ×10⁻⁶ cm/s, 1.731 µM, 54.7 ug/mL, 15.7 nM and above 30 min.
In the case of `O=C(NC1CCNC1)c1ccc(-n2c(=O)ccc3cnc4ccc(-c5ccc(Cl)cc5)cc4c32)cc1` (stereo not drawn) [Compound 96], the PAMPA Permeability in data set [1] worked out at 7.8 ×10⁻⁶ cm/s. In addition, the mTOR in data set [5] was 1.291 µM. In addition, the “Sol @ pH 7.4” value in data set [2] turned out to be 11.4 ug/mL. In addition, in data set [3], a half-maximal response (EC50) required 37.3 nM. Besides, in data set [4], the “Microsomal Stability (rat) T1/2” value was above 30 min.
`NC1(c2ccc(-c3ccc4ncc5ccc(=O)n(-c6ccc(C(=O)NC7CC7)cc6)c5c4c3)cc2)CC1` [Compound 97] registered a PAMPA Permeability in data set [1] of 35.8 ×10⁻⁶ cm/s. In data set [5], this compound yielded a mTOR of 1.4 µM. In data set [2], the “Sol @ pH 7.4” value is on record as 7.1 ug/mL. This compound also came in with an EC50 in data set [3] of 101 nM. For the same compound, the “Microsomal Stability (rat) T1/2” value in data set [4] is given as above 30 min.
The compound `O=C(O)c1cc(Cl)ccc1-c1ccc2ncc3ccc(=O)n(-c4ccc(C(=O)N5CCOCC5)cc4)c3c2c1` [Compound 135] registered a PAMPA Permeability in data set [1] of 3 ×10⁻⁶ cm/s. For the same compound, the mTOR result in data set [5] is “inactive”. Moreover, the “Sol @ pH 7.4” value in data set [2] is above 80.0 ug/mL. In addition, in data set [3], the EC50 was found to be 77800 nM. Besides, the “Microsomal Stability (rat) T1/2” value in data set [4] is on record as above 30.0 min.
In turn, `CC(C)(C)c1ccc(-c2ccc3ncc4ccc(=O)n(-c5ccc(C(=O)N6CCOCC6)cc5)c4c3c2)cc1` [Compound 196] had a PAMPA Permeability in data set [1] of 85.9 ×10⁻⁶ cm/s. Further, the mTOR in data set [5] was 100 µM. For the same compound, the “Sol @ pH 7.4” value in data set [2] was below 1 ug/mL. For the same compound, the “Microsomal Stability (rat) T1/2” value in data set [4] is 18 min.
On to `CNCc1ccc(-c2ccc3ncc4ccc(=O)n(-c5ccc(C(=O)N6CCOCC6)cc5)c4c3c2)cc1` [Compound 198], for which the PAMPA Permeability in data set [1] amounted to 6.1 ×10⁻⁶ cm/s. Further, the mTOR in data set [5] turned out to be 13.84 µM. Also, the “Sol @ pH 7.4” value in data set [2] is above 75 ug/mL. In addition, the EC50 in data set [3] came to 264 nM. For the same compound, in data set [4], the “Microsomal Stability (rat) T1/2” value is given as above 30 min.
In data set [1], `CNCc1cc(-n2c(=O)ccc3cnc4ccc(-c5ccc(Cl)cc5)cc4c32)ccc1C(=O)N1CCOCC1` [Compound 200] registered a PAMPA Permeability of 1070 ×10⁻⁶ cm/s. Further, the mTOR in data set [5] turned out to be 15.37 µM. In data set [2], the “Sol @ pH 7.4” value was found to be 7.2 ug/mL. For the same compound, in data set [3], the EC50 is 60 nM.
In the same order, the values of `COc1cc(C(=O)NC2CC2)ccc1-n1c(=O)ccc2cnc3ccc(-c4ccc(C5(N)CC5)cc4)cc3c21` [Compound 205] are 456 ×10⁻⁶ cm/s, 1.061 µM, 2.2 ug/mL and 177 nM.
In the same order, the values of `Cc1cc(C(=O)NC2CC2)ccc1-n1c(=O)ccc2cnc3ccc(-c4ccc(F)cc4)cc3c21` [Compound 223] are 1180 ×10⁻⁶ cm/s, 7.119 µM, 3.4 ug/mL and 58 nM.
With `Cc1cc(C(=O)NC2CC2)ccc1-n1c(=O)ccc2cnc3ccc(-c4ccc(C5(N)CC5)cc4)cc3c21` [Compound 224], the PAMPA Permeability in data set [1] is below 1 ×10⁻⁶ cm/s. This compound gave a mTOR in data set [5] of 100 µM. For the same compound, the “Sol @ pH 7.4” value in data set [2] was above 74 ug/mL. The EC50 in data set [3] was found to be 46000 nM.
In the case of `NCCCN1Cc2cc(-n3c(=O)ccc4cnc5ccc(-c6ccc(Cl)cc6)cc5c43)ccc2C1=O` [Compound 343], in data set [1], the “PAMPA Permeability (×10^6 cm/s)” value is <2.5 ×10^6 cm/s. Moreover, in data set [2], the “Sol @ pH 7.4 (ug/mL)” value is given as 13.4 ug/mL. For the same compound, the EC50 in data set [3] (setting [6]) was 20.9 nM. Besides, in data set [4], the “Microsomal Stability (rat) T1/2” value is given as above 30 min.
In the same order, the values of `CC(C)(C)OC(=O)CN1Cc2cc(-n3c(=O)ccc4cnc5ccc(-c6ccc(Cl)cc6)cc5c43)ccc2C1=O` [Compound 364] are 75.9 ×10^6 cm/s, 2.7 ug/mL, 4580 nM and above 30 min.
Regarding `O=C1NC(=O)c2cc(-n3c(=O)ccc4cnc5ccc(-c6ccc(Cl)cc6)cc5c43)ccc21` [Compound 379], the “PAMPA Permeability (×10^6 cm/s)” value in data set [1] is on record as 31 ×10^6 cm/s. Also, the “Sol @ pH 7.4 (ug/mL)” value in data set [2] is listed as below 1 ug/mL. In addition, the EC50 in data set [3] (setting [6]) amounted to 2960 nM. Also, the “Microsomal Stability (rat) T1/2” value in data set [4] is on record as 23 min.
For the compound `O=C1NCc2cc(-n3c(=O)ccc4cnc5ccc(-c6ccc(OC7CCNCC7)cc6)cc5c43)ccc21` [Compound 380], the “PAMPA Permeability (×10^6 cm/s)” value in data set [1] was <10.7 ×10^6 cm/s. The “Sol @ pH 7.4 (ug/mL)” value in data set [2] stood at 2.6 ug/mL. Moreover, the midpoint of the response in data set [3] (setting [6]), the EC50, lay at 310 nM. The “Microsomal Stability (rat) T1/2” value in data set [4] was above 30 min.

As a reminder, the EC50 is the concentration needed to bring the measured effect to its halfway point.

The record behind these values is patent publication US11753408B2, “Compounds and method for blocking transmission of malarial parasite” (The United States of America, as represented by the …, priority 2016, dated 2023).
